Measured values published in US10980769B2, “Tiglien-3-one derivatives” (QBIOTICS PTY LTD, priority 2005, dated 2021).
“Also recorded” adds a separate entry of the source.

Key:
[1] = system: Bacillus subtilis; assay: ProTOX (Bs) antibacterial bioassay; assay type: cell-based
Excerpt: ProTOX, (alternatively referred to herein as Bs) is an antibacterial bioassay, broadly applicable to most aerobic and anaerobic bacteria. The bioassay features a solid phase agar base into which the test compound has been incorporated together with a chromogen. As the bacteria multiply in the well, the chromogen is metabolised from blue in a two-step process to a colourless compound. Compounds with potent bactericidal activity inhibit bacterial metabolism of the chromogen while bacteriostatic compounds induce limited metabolism as indicated by an intermediate pink colour. ProTOX is broadly applicable to a range of gram-positive and gram-negative bacteria under aerobic and microaerophilic conditions. ProTOX assays were carried out using Bacillus subtilis.
Briefly, in ProTOX, the bacteria (24 hour broth) were applied to the surface of an agar matrix containing the test sample and allowed to grow for 48 hours. The assay was monitored at 24 and 48 hours and the active wells noted. Known antibiotics yield consistent colour transitions which are concentration and time dependent. These patterns provide an important guide to the early recognition of interesting characteristics.

[2] = system: human nasopharyngeal tumour; assay: Intralesional injection of human nasopharyngeal tumour in SCID-NOD mice; assay type: in vivo, mouse; conditions: up to 3 injections, total of 25 μg in 25% propylene glycol-saline, 2 mice
Protocol: A second mouse model was tested in a pilot study, involving an 8 mm diameter human nasopharyngeal tumour implanted and growing subcutaneously on the neck of a SCID-NOD mouse. Up to 3 injections of EBI-46 (total of 25 μg in 75 μL25% propylene glycol-saline) were made into the NPC tumours of 2 mice.

[3] = system: B16 mouse melanoma; assay: Topical treatment of B16 melanoma tumours in C57BL/6 mice; assay type: in vivo
Protocol: (§1) Tumour cells were injected subcutaneously (2 million cells/site in 50 μL culture medium for LK2 cells, 0.5 million for B16) into 4 sites each on the flanks of nude mice (for LK2 cells) or C57BL/6 mice (B16 mouse melanoma cells). When tumours became visible (2-4 mm diameter) five to 10 days after injection of cells, 37 μg of EBI-46 in 25 μL, of isopropanol gel was applied to each tumour site, each day for 3 days. Tumour size was measured with calipers at appropriate intervals.
(§2) Animal experiments were conducted under Queensland Institute of Medical Research (QIMR) Animal Ethics Committee approvals. The B16 mouse melanoma model was obtained by injecting 0.5 million B16 mouse melanoma cells subcutaneously into each of the 2 flanks of a male C57BL/6 mouse. The human tumour xenografts were obtained by injecting 2 million of the respective tumour cell line into each of 4 sites on the flanks of male nude mice (BALB/c background). EBI-46 was applied: (a) topically by dilution of a concentrated solution in acetone into an isopropanol gel, once a day for 3 days; (b) intralesionally by injection into the tumour of drug dissolved in 25% propylene glycol-0.1 M saline, (c) systemically by injection intraperitoneally in 25% propylene glycol in 0.1 M saline. Tumour size was measured with electronic callipers in mm and converted to volume (cubic mm) using the formula: Tumour volume=length×breadth×breadth/2. Results
Topical application of EBI-46 in an isopropanol gel was carried out on the aggressive B16 mouse melanoma in its natural (syngeneic) host, C57BL/6 mice (0.5 million tumour cells injected per site).
The frequency (1 daily dose for 3 days only) and dose level for topical application of PKC activators was selected on the basis of in vitro activity on cell lines. The materials were dissolved in acetone and diluted into an isopropanol gel for topical application.
The aggressive and rapidly growing B16 mouse melanoma is recognised as a very stringent tumour model in which to test anticancer agents. Stringency was further increased by injecting at least 10× more tumour cells than the minimum required to form a tumour in the animal. […] Such tumours could be distinguished from subcutaneous tumours by their immobility when the skin was pulled around the body of the animal.

[4] = system: LK2 mouse SCC; assay: Topical treatment of LK2 mouse SCC tumours in nude mice; assay type: in vivo
Protocol: as §1, §2
The above was repeated using the UVB-induced mouse squamous cell carcinoma (SCC) grown on nude mice (FIG. 6) and treated with partially-purified EBI-46.
The most recent experiment with topical application used 2 different doses of EBI-46 (FIG. 7). The low dose was 100 μg/site and the high dose was 350 μg/site/treatment.

[5] = system: normal skin; assay: Inflammatory response of skin; conditions: in vivo
[6] = system: K562 leukemia, MCF-7 breast cancer, Colo-205 colon cancer and D04 and SKMel-5 melanoma; assay: In vitro growth inhibition profile, sensitive versus other cell lines; assay type: cell-based, human
Protocol: In addition, scattering of MCF-7 and HT-29 colon tumour cells was observed, typical of PKC activators. […] Additionally, given their similarity in structure, EBI-47, EBI-59 and EBI-61 are also considered to be protein kinase C activators.
For growth inhibition assays, cells (2000-5000/well) were seeded in 96-well plates in duplicate, treated with drug next day and allowed to grow for a further 5-6 days. The plates were then washed in PBS (phosphate buffered saline, pH 7.2), fixed with ethanol and stained by addition of 50 μL 0.4% SRB (sulforhodamine) in 1% acetic acid. The plate was left at room temperature for a minimum of 15 minutes, then washed rapidly with tap water and then twice with 1% acetic acid. After addition of 100 μL/well of 10 mM Tris base (unbuffered, pH>9), plates were left for a minimum of 5 minutes, then the absorbance was read at 564 nm on the ELISA reader, with a 3 second prior shaking. After subtraction of a blank (wells with no cells, typically about 0.04), growth inhibition was calculated as % of the untreated control and plotted against dose. […]

[7] = system: Haemonchus contortus; assay: NemaTOX (Ne) anthelmintic larval development bioassay
Protocol: NemaTOX (alternatively referred to herein as Ne) is an anthelmintic bioassay, applicable to all parasitic nematodes with free-living life cycle stages, and can be used as a screen to detect activity and define the species spectrum of compounds against parasitic nematodes and examine the impact of pre-existing resistance to other anthelmintic classes on potency. Haemonchus contortus was utilised for this assay.
The effect on larval development was determined in this assay by the method described by Gill et al. (1995) Int. J. Parasitol. 25: 463-470. Briefly, in this assay nematode eggs were applied to the surface of an agar matrix containing the test sample and allowed to develop through to the L3, infective stage (6 days). At this time the stage of larval development reached and any unusual features (deformity, paralysis, toxicity) were noted by microscopic examination.

[8] = Table 6a, last well with activity, real value may be lower
[9] = topical, approximately 150 μg/site

How did the “Bs Titre” value [1] turn out when `C/C=C(\C)C(=O)OC1C(C)C2(O)C(C3OC3(CO)C(O)C3(O)C(=O)C(C)=CC32)C2C(C)(C)C12OC(=O)C(C)CC` (stereo not shown) [EBI-46, 12-tigloyl-13-(2-methylbutanoyl)-6,7-epoxy-4,5,9,12,13,20-hexahydroxy-1-tiglian-3-one] was run?
Its value is 1.

What about the “Bs LD99” value [1, 8] of the same compound?
The value was 50 pg/mL.

What about the tumour outcome [2] of the same compound?
Its tumour outcome is “no sign of residual tumour; also recorded: delayed but not ablated”.

And the “systemic toxicity or lung metastases on post mortem” value ([3]; topical 37 μg per site once a day for 3 days)?
The value was “There were no signs of”.

And the tumour growth ([3]; topical 37 μg per site once a day for 3 days starting at day 5)?
Its tumour growth is “inhibition of tumour growth”.

And the inflammatory response [3, 9]?
Its inflammatory response is “mild”.

What about the “systemic toxicity or lung metastases” value [3, 9] of the same compound?
Its value is “no sign of systemic toxicity or lung metastases”.

What about the tumour sites cured [3, 9] of the same compound?
Its tumour sites cured is “one site apparently cured”.

What about the tumour response ([3]; topical, approximately 150 μg/site, 1 daily dose for 3 days) of the same compound?
The tumour response was “good response”.

What about the “tumours cured and healed without scarring” value ([4]; 37 ug/site in isopropanol gel once a day for 3 days, nude mice) of the same compound?
The value was “without scarring of 3 out of 4”.

What about the “systemic toxicity or lung metastases on post mortem” value ([4]; 37 ug/site once a day for 3 days) of the same compound?
The value was “no signs of systemic toxicity”.

And the “tumour growth inhibition result” value ([4]; high dose 350 μg/site/treatment)?
Its value is “excellent result”.

And the effect on skin [5]?
The effect on skin was “can cause inflammation of skin; also recorded: causes an inflammatory response in normal skin”.

And the “growth-inhibiting doses in sensitive cell lines lower than for other human tumour cell lines and normal human fibroblasts” value [6]?
Its value is “approximately 100 fold”.

And the “Ne Titre” value [7]?
The value was 2.

And the “Ne LD99” value [7, 8]?
Its value is 31 pg/mL.
